Measurements taken from article PMC4344207 (PLoS ONE, 2015).
Like-named read-outs stand apart in the source and are kept apart here.

Key:
[1] = test system: exendin-4 degradation in rat kidney homogenate; assay: Inhibition of exendin-4 metabolism by protease inhibitors in rat kidney homogenate; format: biochemical
[2] = test system: exendin-4 degradation in rat liver homogenate; assay: Inhibition of exendin-4 metabolism by protease inhibitors in rat liver homogenate; format: biochemical
[3] = humans, biologically active GLP-1; cited from earlier work
Excerpt: (§1) In 2003, the International Diabetes Federation (IDF) estimated that almost 200 million people around the world had diabetes mellitus (DM). Approximately 90–95% of people with DM have type 2 diabetes mellitus (T2DM), which is characterized by hyperglycemia, insulin resistance, absolute or relative insulin deficiency, hyperglucagonemia, and increased hepatic glucose production. An optimal therapy for controlling the circulating glucose levels has not been established, and many currently available therapies are associated with unfavorable side effects, which limit their use. […] Although naturally resist ...

[4] = test system: plasma dipeptidyl peptidase-IV (DPP-IV); conditions: circulating GLP-1, rat and human plasma DPP-IV; cited from earlier work
Excerpt: as §1

Row | Molecule | percentage inhibition of exendin-4 degradation, kidney [1] | percentage inhibition of exendin-4 degradation, liver [2] | further results
1 | O=C(O)CNC(=O)C(CS)Cc1ccccc1 (racemic) [DL-thiorphan] |  |  | percentage inhibition of exendin-4 degradation, kidney ([1]; rat kidney homogenate, inhibitor pre-incubated 10 min at 37°C, then exendin-4 10 μM for 30 min, NEM 10 mM, phenanthroline 2 mM, PPACK 210 μM, soybean 1 mg/mL, DL-thiorphan 2 mM, captopril 30 μM, DFP 10 mM, PMSF 1 mM, amastatin 100 μM, bestatin 2 mM, LC-ESI-MS, n = 3): 73%; percentage inhibition of exendin-4 degradation, liver ([2]; rat liver homogenate, inhibitor pre-incubated 10 min at 37°C, then exendin-4 10 μM for 60 min, NEM 10 mM, phenanthroline 2 mM, PPACK 210 μM, soybean 1 mg/mL, DL-thiorphan 2 mM, captopril 30 μM, DFP 10 mM, PMSF 1 mM, amastatin 100 μM, bestatin 2 mM, LC-ESI-MS, n = 3): no effect
2 | c1cnc2c(c1)ccc1cccnc12 [1,10-phenanthroline] | > 77% | > 77% | 
3 | CCN1C(=O)C=CC1=O [NEM, N-ethylmaleimide] | not inhibited | not inhibited | 
4 | O=S(=O)(F)Cc1ccccc1 [PMSF, phenylmethylsulfonyl fluoride] | 18% | 65% | 
5 | NC(N)=NCCC[C@H](NC(=O)[C@@H]1CCCN1C(=O)[C@H](N)Cc1ccccc1)C(=O)CCl [PPACK] | 41% | no effect | 
6 | CC(C)C[C@@H](N)[C@H](O)C(=O)N[C@H](C(=O)N[C@H](C(=O)N[C@@H](CC(=O)O)C(=O)O)C(C)C)C(C)C [amastatin] | 32% | 13.2% | 
7 | CC(C)C[C@H](NC(=O)[C@@H](O)[C@H](N)Cc1ccccc1)C(=O)O [bestatin] | 11% | 48% | 
8 | C[C@H](CS)C(=O)N1CCC[C@H]1C(=O)O [captopril] | not inhibited | not inhibited | 
9 | glucagon-like peptide 1 [GLP-1] |  |  | apparent serum half-life [3]: 1 to 2 min; cleavage by rat and human plasma DPP-IV [4]: rapid proteolytic cleavage
10 | trypsin inhibitor (soybean): soybean trypsin inhibitor (protein, UniProt P01070 25-205, looked up) Trypsin inhibitor A: DFVLDNEGNPLENGGTYYILSDITAFGGIRAAPTGNERCPLTVVQSRNELDKGIGTIISSPYRIRFIAEGHPLSLKFDSFAVIMLCVGIPTEWSVVEDLPEGPAVKIGENKDAMDGWFRLERVSDDEFNNYKLVFCPQQAEDDKCGDIGISIDHDDGTRRLVVSKNKPLVVQFQKLDKESL | no effect | 20% | 
